In patent publication US9975852B2, “Quinoline sulfonyl derivatives and uses thereof” (Health Sciences North Research Institute, priority 2013, dated 2018):

How the values were obtained:
[1] = system: MCF7; experiment: SRB antiproliferative assay, MCF7; format: cell-based, human; conditions: Homo sapiens
Description: (§1) Antiproliferative effects were determined by a sulforhodamine B (SRB) based protocol. For a typical screening experiment, 5,000-10,000 cells were inoculated into 100 μl medium per well of a 96-well microtiter plate as described previously. […] Some of the sample wells were fixed with 25 μl of 50% trichloroacetic acid (TCA) as a control of the cell population for each cell line at the time of drug addition (Tz). An aliquot of the frozen stock was thawed and diluted to the desired final maximum test-concentration with complete medium. Two to ten-fold serial dilutions were made to provide a total of seven drug concentrations (and a control [C]). Following addition of drugs, the culture plate was incubated for additional 48 h. Cells were fixed in situ by slowly adding 25 μl of ice-cold 50% (w/v) TCA (final concentration, 10% TCA), and were then incubated for 60 min at 4° C. The supernatant was discarded, and the plate was washed five times with tap water, followed by air-dry. 50 μl of SRB solution at 0.4% (w/v) in 1% acetic acid was added to each well, and the plate was incubated for >30 min at room temperature. Unbound SRB was removed by five washes with tap water, followed by air-drying. […] The relative growth rate (%) was calculated for each of the compound concentrations according to the following formula: (Ti−Tz)/(C−Tz)×100 In the formula, time zero (Tz), control growth (C), and OD for different concentration of tested compounds (Ti). The GI50 for each compound was obtained from a non-linear Sigmoidal dose-response (variable slope) curve which is fitted by GraphPad Prism™ v.4.03 software. Values were calculated for each of these parameters if the level of activity was reached. However, if the effect was not reached or was exceeded, the value for that parameter was expressed as greater or less than the maximum or minimum concentration tested. Flow Cytometry

[2] = system: 184B5; experiment: SRB antiproliferative assay, 184B5 non-cancer breast cells; format: cell-based, human; conditions: Homo sapiens, 184B5, SRB
Description: as §1

[3] = system: U87MG; experiment: SRB antiproliferative assay, U87MG; format: cell-based; conditions: Homo sapiens, U-87 MG
Description: (§2) Antiproliferative effects were determined by a sulforhodamine B (SRB) based protocol. For a typical screening experiment, 5,000-10,000 cells were inoculated into 100 μl medium per well of a 96-well microtiter plate as described previously. Briefly, after the inoculation, the microtiter plate was incubated at 37° C., 5% CO2, 95% air and 100% relative humidity for 24 h, prior to addition of experimental drugs. Some of the sample wells were fixed with 25 μl of 50% trichloroacetic acid (TCA) as a control of the cell population for each cell line at the time of drug addition (Tz). An aliquot of the frozen stock was thawed and diluted to the desired final maximum test-concentration with complete medium. […] The cells “stained” with SRB were solubilized with 10 mM trizma base, and the absorbance was read on an automated plate reader at a wavelength of 515-564 nm. The relative growth rate (%) was calculated for each of the compound concentrations according to the following formula: (Ti−Tz)/(C−Tz)×100 In the formula, time zero (Tz), control growth (C), and OD for different concentration of tested compounds (Ti). […] Values were calculated for each of these parameters if the level of activity was reached. However, if the effect was not reached or was exceeded, the value for that parameter was expressed as greater or less than the maximum or minimum concentration tested. […]

[4] = system: HeLa; experiment: SRB antiproliferative assay, HeLa; format: cell-based; conditions: Homo sapiens
Description: as §2

[5] = target: T1, Trypsin-like proteasome activity in HeLa S3 cell lysates (Homo sapiens, UniProt Q99436); experiment: Proteasome activity assay, trypsin-like; format: biochemical; conditions: read-out: Inhibition (IC50) Trypsin-like
T1 construct: proteasomes were extracted in 0.5% NP40 buffer; endogenous in cells; host or cells: HeLa S3
Description: Exponentially growing HeLa S3 cells were plated on 96-well plates. After overnight incubation, the cells were treated with different concentrations of drugs for 6 hours or left untreated (control). At the end of 6 hours, proteasomes were extracted in 0.5% NP40 buffer, and equal amounts of samples were incubated with 25 μM of fluorogenic substrates purchased from Boston Biochem (Cambridge Mass.). (LRR-specific for trypsin-like activity, LLE-specific for caspase-like activity and SUVY-specific for chymotrypsin like activity) in black-bottom 96-well plates at 37° C. Fluorescence was monitored every 5 min at the wavelength of 360 nm (excitation) and 480 nm (emission). Chymotrypsin activity was also determined by a kit-based method (similar to described above) purchased from Caymen Biochem (Ann Arbor, Mich.), using a fluorogenic substrate specific for chymotrypsin activity.
Analysis of proteasome activity in HeLa S3 cell lysates treated with various compounds (FIG. 10). VR-23 inhibits proteasome activity. 20S proteasome activity was inhibited by 1 μM VR-23. MG132 and EGCG, known proteasome inhibitors, were used as positive controls. The PC positive control is cell lysates prepared from Jurkat cells with a high proteasome activity. “Asynchr” denote asynchronous HeLa S3 cells grown in the absence of VR-23.

O=[N+]([O-])c1ccc(S(=O)(=O)N2CCN(c3ccnc4cc(Cl)ccc34)CC2)c([N+](=O)[O-])c1 [Compound 1, 7-Chloro-4-(4-(2,4-dinitrophenylsulfonyl)piperazin-1-yl)quinoline]
GI50 ([1]; MCF7, 48 h, read-out: GI50 MCF7): 2320 ± 800 nM | IC50 ([1]; MCF7, SRB): 2300 ± 800 nM | IC50 [2]: 9 ± 0.1 µM | GI50 ([2]; 48 h, read-out: GI50 184B5): 8.99 ± 0.12 µM | IC50 [3]: 800 ± 100 nM | IC50 [4]: 4.4 ± 3 µM | IC50 [5]: 1 nM
